According to patent publication US20240308992A1 (Biopolar Youtang(Guangdong) Pharmaceutical Co., Ltd., priority 2021, published 2024):

The compounds below were run against T1, Drak2 (Homo sapiens, UniProt O94768) (assay: Drak2 activity test, ADP-Glo kinase assay (Promega)). Conditions: inhibition of Drak2 kinase activity, 2 h room temperature, activity range classes, read-out: IC50_Drak2.
T1 sequence (O94768 1-372): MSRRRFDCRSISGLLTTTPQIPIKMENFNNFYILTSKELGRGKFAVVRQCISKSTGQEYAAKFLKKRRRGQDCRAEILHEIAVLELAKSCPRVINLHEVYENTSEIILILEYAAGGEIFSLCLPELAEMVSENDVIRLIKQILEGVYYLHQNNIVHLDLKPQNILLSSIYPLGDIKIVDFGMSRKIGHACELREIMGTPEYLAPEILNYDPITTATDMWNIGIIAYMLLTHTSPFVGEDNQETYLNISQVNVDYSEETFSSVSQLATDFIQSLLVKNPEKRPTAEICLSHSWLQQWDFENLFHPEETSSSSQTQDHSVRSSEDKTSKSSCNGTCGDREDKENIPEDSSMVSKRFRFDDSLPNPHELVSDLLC
Type: biochemical
For `CCC1(CC(=O)Nc2csc(-c3cncc(-c4ccc(C(=O)N(C)C5CCN(C)CC5)c(OC)c4)n3)c2)CCC1` [Example B86, 4-(6-(4-(2-(1-ethylcyclobutyl)acetamido)thiophen-2-yl)pyrazin-2-yl)-2-methoxy-N-methyl-N-(1-methylpiperidin-4-yl)benzamide], the IC50 was 101 to 1000 nM. `CCCCC(=O)Nc1csc(-c2nccc(-c3ccc(OC)c(OC)c3)n2)c1` [Example A11, N-(5-(4-(3,4-dimethoxyphenyl)pyrimidin-2-yl)thiophen-3-yl)pentanamide] gave an IC50 of over 10000 nM. `CCCCC(=O)Nc1csc(-c2cncc(-c3ccc(OC)c(S(C)(=O)=O)c3)n2)c1` [Example 221] showed an IC50 of 101 to 1000 nM. Compound `COc1ccc(-c2cncc(NC3CCC(N)CC3)n2)cc1OC` (stereo not shown) [Example D1, N^1-(6-(3,4-dimethoxyphenyl)pyrazin-2-yl)cyclohexane-1,4-diamine] has an IC50 of over 10000 nM. `COc1ccc(-c2cncc(-c3cc(NC(C)=O)cs3)n2)cc1OC` [Example A3, N-(5-(6-(3,4-dimethoxyphenyl)pyrazin-2-yl)thiophen-3-yl)acetamide] showed an IC50 of 101 to 1000 nM. `COc1cc(-c2cncc(-c3cc(NC(=O)CC4CC(F)C4)cs3)n2)ccc1C(=O)N(C)C1CCN(C)CC1` (stereo not shown) [Example B90, 4-(6-(4-(2-(3-fluorocyclobutyl)acetamido)thiophen-2-yl)pyrazin-2-yl)-2-methoxy-N-methyl-N-(1-methylpiperidin-4-yl)benzamide] gave an IC50 of under 10 nM. For `COc1cc(-c2cncc(-c3cc(OCC[C@H](C)CN)cs3)n2)ccc1C(=O)N(C)C1CCN(C)CC1` [Example G1, (S)-4-(6-(4-(4-amino-3-methylbutoxy)thiophen-2-yl)pyrazin-2-yl)-2-methoxy-N-methyl-N-(1-methylpiperidin-4-yl) benzamide], the IC50 was 101 to 1000 nM. Compound `COc1cc(-c2cncc(-c3cc(NC(=O)CC4CC(F)C4)cs3)n2)ccc1C(=O)N(C)C1CC2(C1)CN(C)C2` (stereo not shown) [Example B99, 4-(6-(4-(2-(3-fluorocyclobutyl)acetamido)thiophen-2-yl)pyrazin-2-yl)-2-methoxy-N-methyl-N-(2-methyl-2-azaspiro[3.3]heptan-6-yl)benzamide] has an IC50 of under 10 nM. In the case of `COc1cc(-c2cncc(-c3cc(NC(=O)CC4CC4)cs3)n2)ccc1C(=O)Nc1nnnn1C` [Example B25, 2-methoxy-4-(6-(4-(2-cyclopropylacetamido)thiophen-2-yl)pyrazin-2-yl)-N-(1-methyl-1H-tetrazol-5-yl)benzamide], the IC50 is reported as 11 to 100 nM. Work on `COc1cc(-c2cncc(-c3cc(NC(=O)CC4CCCC4)cs3)n2)ccc1C(=O)Nc1cnn(C)c1OC` [Example B44, 4-(6-(4-(2-cyclopentylacetamido)thiophen-2-yl)pyrazin-2-yl)-2-methoxy-N-(5-methoxy-1-methyl-1H-pyrazol-4-yl)benzamide] yielded an IC50 of 101 to 1000 nM. Work on `COc1cc(-c2cncc(-c3cc(NC(=O)CC4CCC4)cs3)n2)ccc1OCC(=O)N1CCN(C)CC1` [Example 176, 2-cyclobutyl-N-{5-[6-(3-methoxy-4-{[2-(4-methylpiperazin-1-yl)-2-oxoethyl]oxy}phenyl)pyrazin-2-yl]thiophen-3-yl} acetamide] yielded an IC50 of under 10 nM. Compound `CCCCC(=O)Nc1csc(-c2cncc(-c3ccco3)n2)c1` [Example 220, N-{5-[6-(furyl-2-yl)pyrazin-2-yl]thiophen-3-yl}pentanamide] has an IC50 of 101 to 1000 nM. Compound `COc1cc(-c2cncc(-c3cc(NC(=O)CC4CCC4)cs3)n2)ccc1OCCN1CCSCC1` [Example 190] has an IC50 of 11 to 100 nM. Work on `COc1ccc(-c2cncc(-c3cc(NC(=O)C4CCCCC4)cs3)n2)cc1OC` [Example A9, N-(5-(6-(3,4-dimethoxyphenyl)pyrazin-2-yl)thiophen-3-yl)cyclohexanecarboxamide] yielded an IC50 of 101 to 1000 nM. `CCCCCCCCCC(=O)Nc1csc(-c2cncc(-c3ccc(C(=O)Nc4nnn[nH]4)c(OC)c3)n2)c1` [Example B20, 2-methoxy-4-(6-(4-decanamidothiophen-2-yl)pyrazin-2-yl)-N-(1H-tetrazol-5-yl)benzamide] was tested, and the IC50 was over 10000 nM. `COc1cc(-c2cncc(-c3cc(NC(=O)CC4CCCC4)cs3)n2)ccc1C(=O)N1CCN(C2CCN(C)CC2)CC1` [Example B52, 2-cyclopentyl-N-(5-(6-(3-methoxy-4-(4-(1-methylpiperidin-4-yl)piperazine-1-carbonyl)phenyl)pyrazin-2-yl)thiophen-3-yl)acetamide] was tested, and the IC50 was 11 to 100 nM. `CCCCC(=O)Nc1csc(-c2cncc(-c3ccc(C(=O)Nc4nnnn4C)c(OC)c3)n2)c1` [Example B15, 2-methoxy-4-(6-(4-pentanamidothiophen-2-yl)pyrazin-2-yl)-N-(1-methyl-1H-tetrazol-5-yl)-benzamide] showed an IC50 of 11 to 100 nM. `COc1cc(-c2cncc(-c3cc(NC(=O)CC4CC(C(C)=O)C4)cs3)n2)ccc1C(=O)N(C)C1CCN(C)CC1` (stereo not shown) [Example B91, 4-(6-(4-(2-(3-acetylcyclobutyl)acetamido)thiophen-2-yl)pyrazin-2-yl)-2-methoxy-N-methyl-N-(1-methylpiperidin-4-yl)benzamide] was tested, and the IC50 was 101 to 1000 nM. For `COc1cc(-c2cncc(-c3cc(NC(=O)CC4CC4)cs3)n2)ccc1S(=O)(=O)N(C)C1CCN(C)CC1` [Example B103, 2-cyclopropyl-N-(5-(6-(3-methoxy-4-(N-methyl-N-(1-methylpiperidin-4-yl)sulfamoyl)phenyl)pyrazin-2-yl)thiophen-3-yl)acetamide], the IC50 was 11 to 100 nM. `Cn1ncc2ccc(-c3cncc(-c4cc(NC(=O)CC5CCC5)cs4)n3)cc21` [Example A49, 2-cyclobutyl-N-(5-(6-(1-methyl-1H-indazol-6-yl)pyrazin-2-yl)thiophen-3-yl)acetamide] gave an IC50 of 11 to 100 nM. `COc1cc(-c2cncc(-c3cc(NC(=O)CC4CC4)cs3)n2)ccc1S(C)(=O)=O` [Example A43, 2-cyclopropyl-N-(5-(6-(3-methoxy-4-(methylsulfonyl)phenyl)pyrazin-2-yl)thiophen-3-yl)acetamide] showed an IC50 of 11 to 100 nM. Compound `COc1cc(-c2cncc(-c3cc(NC(=O)CC4CCC4)cs3)n2)ccc1C(=O)Nc1nnco1` [Example B62, 4-(6-(4-(2-cyclobutylacetamido)thiophen-2-yl)pyrazin-2-yl)-2-methoxy-N-(1,3,4-oxadiazol-2-yl)benzamide] has an IC50 of 11 to 100 nM. Compound `COc1ccc(-c2cncc(-c3cc(NC(=O)C4CCC4)cs3)c2C(N)=O)cc1OC` [Example C1, 3-(4-(cyclobutanecarboxamido)thiophen-2-yl)-5-(3,4-dimethoxyphenyl)isonicotinamide] has an IC50 of over 10000 nM. With `COc1cc(-c2cncc(-c3cc(NC(=O)CC4COC4)cs3)n2)ccc1C(=O)N(C)C1CCN(C)CC1` [Example B89, 2-methoxy-N-methyl-N-(1-methylpiperidin-4-yl)-4-(6-(4-(2-(oxetan-3-yl)acetamido)thiophen-2-yl)pyrazin-2-yl)benzamide] the IC50 was 101 to 1000 nM. `COc1cc(-c2cncc(-c3cc(NC(=O)CC4CCC4)cs3)n2)ccc1C(=O)N(C)CCN(C)C` [Example B57, 4-(6-(4-(2-cyclobutylacetamido)thiophen-2-yl)pyrazin-2-yl)-N-(2-(dimethylamino)ethyl)-2-methoxy-N-methylbenzamide] gave an IC50 of 11 to 100 nM. `COc1cc(-c2cncc(-c3cc(NC(=O)CC4CCC4)cs3)n2)ccc1C(=O)N1CCN(C2CCN(C)CC2)CC1` [Example B51, 2-cyclobutyl-N-(5-(6-(3-methoxy-4-(4-(1-methylpiperidin-4-yl)piperazine-1-carbonyl)phenyl)pyrazin-2-yl)thiophen-3-yl)acetamide] showed an IC50 of 11 to 100 nM. `COc1ccc(-c2cncc(NC3CCC(NC(=O)C4CCC4)CC3)n2)cc1OC` (stereo not shown) [Example D2, N-(4-((6-(3,4-dimethoxyphenyl)pyrazin-2-yl)amino)cyclohexyl)cyclobutanecarboxamide] showed an IC50 of over 10000 nM. For `COc1ccc(-c2cncc(-c3cc(NC(=O)C(C)(C)C)cs3)n2)cc1OC` [Example A5, N-(5-(6-(3,4-dimethoxyphenyl)pyrazin-2-yl)thiophen-3-yl)pivalamide], the IC50 was 101 to 1000 nM. `COc1cc(-c2cncc(-c3cc(NC(=O)C(C)(C)C4CCC4)cs3)n2)ccc1C(=O)N(C)C1CC2(C1)CN(C)C2` [Example 201, 4-(6-{4-[(2-cyclobutyl-2-methylpropionyl)amino]thiophen-2-yl}pyrazin-2-yl)-2-methoxy-N-methyl-N-(2-methyl-2-azaspiro [3.3]hept-6-yl) benzamide] gave an IC50 of 1000 to 10000 nM. Compound `CCN(CC)C(=O)Nc1csc(-c2cncc(-c3ccc(OC)c(OC)c3)n2)n1` [Example D4, 3-(2-(6-(3,4-dimethoxyphenyl)pyrazin-2-yl)thiazol-4-yl)-1,1-diethylurea] has an IC50 of 1000 to 10000 nM. Work on `CCCCC(=O)Nc1csc(-c2cncc(-c3ccc(OC)c(Cl)c3)n2)c1` [Example A19, N-(5-(6-(3-chloro-4-methoxyphenyl)pyrazin-2-yl)thiophen-3-yl)pentanamide] yielded an IC50 of 101 to 1000 nM. `O=C(Nc1csc(-c2cncc(-c3ccc4c(c3)OCO4)n2)c1)C1CCC1` [Example A24, N-(5-(6-(benzo[d][1,3]dioxol-5-yl)pyrazin-2-yl)thiophen-3-yl)cyclobutanecarboxamide] gave an IC50 of 1000 to 10000 nM. `COc1cc(-c2cncc(-c3cc(NC(=O)CC4CCC4)cs3)n2)ccc1S(C)(=O)=O` [Example A44, 2-cyclobutyl-N-(5-(6-(3-methoxy-4-(methylsulfonyl)phenyl)pyrazin-2-yl)thiophen-3-yl)acetamide] showed an IC50 of 11 to 100 nM. `COc1cc(-c2cncc(-c3cc(NC(=O)CC4CCC4)cs3)n2)ccc1OCCN1CCCC1` [Example 189, 2-Cyclobutyl-N-(5-(6-(3-methoxy-4-(2-(pyrrolidin-1-yl)ethoxy)phenyl)pyrazin-2-yl)thiophen-3-yl) acetamide] gave an IC50 of under 10 nM.
